Reference: paper PMC7782168, “Synthesis, telomerase inhibitory and anticancer activity of new 2-phenyl-4H-chromone derivatives containing 1,3,4-oxadiazole moiety” (Journal of Enzyme Inhibition and Medicinal Chemistry, 2020)

What was measured:
telomerase = target: T1, telomerase (Homo sapiens, UniProt O14746); experiment: Telomerase activity assay using MGC-803 cells extract; type: biochemical; conditions: mean ± SD
T1 construct: assayed for telomerase activity using MGC-803 cells extract; endogenous in cells; host or cells: MGC-803 cell extract
T1 sequence (O14746 whole entry): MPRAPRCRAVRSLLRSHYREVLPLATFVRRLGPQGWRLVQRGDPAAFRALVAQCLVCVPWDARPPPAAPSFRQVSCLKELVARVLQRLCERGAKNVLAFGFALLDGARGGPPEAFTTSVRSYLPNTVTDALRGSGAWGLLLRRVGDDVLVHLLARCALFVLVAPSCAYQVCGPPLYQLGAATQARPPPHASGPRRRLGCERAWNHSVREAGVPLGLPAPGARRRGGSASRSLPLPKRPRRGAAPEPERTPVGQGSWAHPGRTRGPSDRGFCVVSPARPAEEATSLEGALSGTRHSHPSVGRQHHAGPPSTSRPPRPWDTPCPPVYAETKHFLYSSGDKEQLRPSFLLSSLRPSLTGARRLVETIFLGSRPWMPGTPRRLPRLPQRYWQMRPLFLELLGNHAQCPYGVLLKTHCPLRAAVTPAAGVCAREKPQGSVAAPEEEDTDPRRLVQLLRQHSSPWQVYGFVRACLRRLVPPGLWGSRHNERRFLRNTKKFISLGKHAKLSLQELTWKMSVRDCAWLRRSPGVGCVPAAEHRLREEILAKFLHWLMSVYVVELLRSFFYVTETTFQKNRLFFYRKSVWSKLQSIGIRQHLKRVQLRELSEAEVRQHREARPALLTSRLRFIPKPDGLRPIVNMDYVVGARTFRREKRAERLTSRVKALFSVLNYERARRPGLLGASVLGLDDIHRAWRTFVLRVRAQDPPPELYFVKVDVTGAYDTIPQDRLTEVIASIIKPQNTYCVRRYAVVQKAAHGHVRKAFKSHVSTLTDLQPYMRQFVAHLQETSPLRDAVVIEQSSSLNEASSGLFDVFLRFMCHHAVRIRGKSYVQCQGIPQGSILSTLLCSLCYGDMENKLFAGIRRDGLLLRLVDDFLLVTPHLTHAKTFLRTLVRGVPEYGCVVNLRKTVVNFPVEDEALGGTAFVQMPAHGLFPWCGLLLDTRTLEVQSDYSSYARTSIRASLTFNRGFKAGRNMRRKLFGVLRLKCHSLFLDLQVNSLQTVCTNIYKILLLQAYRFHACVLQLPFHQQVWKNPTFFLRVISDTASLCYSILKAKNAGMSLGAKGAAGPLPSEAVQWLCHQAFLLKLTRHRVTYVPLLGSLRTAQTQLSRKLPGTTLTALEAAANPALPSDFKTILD
T1 sequence (O60832 2-514 partner limits assumed): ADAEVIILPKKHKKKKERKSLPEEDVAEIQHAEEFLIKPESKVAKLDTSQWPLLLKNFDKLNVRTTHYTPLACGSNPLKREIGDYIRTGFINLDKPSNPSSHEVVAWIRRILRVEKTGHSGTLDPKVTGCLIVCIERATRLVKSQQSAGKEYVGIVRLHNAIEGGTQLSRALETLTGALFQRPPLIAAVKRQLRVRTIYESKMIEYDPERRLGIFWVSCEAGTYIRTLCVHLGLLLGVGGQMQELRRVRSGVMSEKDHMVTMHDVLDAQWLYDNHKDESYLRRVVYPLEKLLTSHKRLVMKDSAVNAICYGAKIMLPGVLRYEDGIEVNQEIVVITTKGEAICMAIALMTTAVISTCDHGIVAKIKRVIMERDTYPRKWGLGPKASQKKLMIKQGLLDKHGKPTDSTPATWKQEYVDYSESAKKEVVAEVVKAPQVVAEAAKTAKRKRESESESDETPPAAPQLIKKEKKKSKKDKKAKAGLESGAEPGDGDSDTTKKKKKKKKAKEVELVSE
T1 sequence (Q9NPE3 whole entry partner): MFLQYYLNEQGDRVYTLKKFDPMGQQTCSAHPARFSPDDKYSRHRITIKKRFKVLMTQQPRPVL
T1 sequence (Q9NX24 whole entry partner): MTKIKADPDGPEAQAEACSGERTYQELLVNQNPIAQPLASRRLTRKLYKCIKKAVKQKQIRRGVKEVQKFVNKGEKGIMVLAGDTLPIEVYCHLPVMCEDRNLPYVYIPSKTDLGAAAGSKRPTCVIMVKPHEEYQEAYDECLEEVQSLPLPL
T1 sequence (Q9NY12 whole entry partner): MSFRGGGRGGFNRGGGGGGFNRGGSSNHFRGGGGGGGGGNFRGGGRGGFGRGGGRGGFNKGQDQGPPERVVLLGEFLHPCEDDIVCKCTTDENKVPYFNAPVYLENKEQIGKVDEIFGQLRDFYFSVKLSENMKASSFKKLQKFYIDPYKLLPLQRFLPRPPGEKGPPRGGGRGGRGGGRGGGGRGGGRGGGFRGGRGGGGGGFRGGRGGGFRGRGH

SMILES	IC50 (telomerase) [µM]	melting point [°C]
COc1cc(OC)c2c(=O)c(OCC(=O)Nc3nnc(-c4ccc(OC(F)(F)F)cc4)o3)c(-c3cc(OC)c(OC)c(OC)c3)oc2c1 [A19, 2–(5,7-dimethoxy-4-oxo-2–(3,4,5-trimethoxyphenyl)-4H-chromen-3-yloxy)-N-(5–(4-(trifluoromethoxy)phenyl)-1,3,4-oxadiazol-2-yl)acetamide]	1.21 ± 0.29	230 to 232
COc1cc(OC)c2c(=O)c(OCC(=O)Nc3nnc(-c4ccccc4C)o3)c(-c3ccc(OC)c(OC)c3)oc2c1 [B13, 2–(2-(3,4-dimethoxyphenyl)-5,7-dimethoxy-4-oxo-4H-chromen-3-yloxy)-N-(5-o-tolyl-1,3,4-oxadiazol-2-yl)acetamide]	8.09 ± 2.25	234 to 236
COc1cc(OC)c2c(=O)c(OCC(=O)Nc3nnc(-c4ccc(C)cc4)o3)c(-c3ccc(OC)c(OC)c3)oc2c1 [B11, 2–(2-(3,4-dimethoxyphenyl)-5,7-dimethoxy-4-oxo-4H-chromen-3-yloxy)-N-(5-p-tolyl-1,3,4-oxadiazol-2-yl)acetamide]	5.65 ± 1.77	239 to 241
COc1cc(OC)c2c(=O)c(OCC(=O)Nc3nnc(-c4ccccc4Br)o3)c(-c3cc(OC)c(OC)c(OC)c3)oc2c1 [A10, N-(5–(2-bromophenyl)-1,3,4-oxadiazol-2-yl)-2–(5,7-dimethoxy-4-oxo-2–(3,4,5-trimethoxyphenyl)-4H-chromen-3-yloxy)acetamide]	21 ± 4.09	199 to 201
COc1cc(OC)c2c(=O)c(OCC(=O)Nc3nnc(-c4ccccc4OC(F)(F)F)o3)c(-c3ccc(OC)c(OC)c3)oc2c1 [B21, 2–(2-(3,4-dimethoxyphenyl)-5,7-dimethoxy-4-oxo-4H-chromen-3-yloxy)-N-(5–(2-(trifluoromethoxy)phenyl)-1,3,4-oxadiazol-2-yl)acetamide]	9.22 ± 1.01	226 to 228
COc1cc(OC)c2c(=O)c(OCC(=O)Nc3nnc(-c4cccc5ccccc45)o3)c(-c3ccc(OC)c(OC)c3)oc2c1 [B28, 2–(2-(3,4-dimethoxyphenyl)-5,7-dimethoxy-4-oxo-4H-chromen-3-yloxy)-N-(5-(naphthalen-1-yl)-1,3,4-oxadiazol-2-yl)acetamide]	1.19 ± 0.18	230 to 232
COc1cc(OC)c2c(=O)c(OCC(=O)Nc3nnc(-c4ccc(C(F)(F)F)cc4)o3)c(-c3ccc(OC)c(OC)c3)oc2c1 [B16, 2–(2-(3,4-dimethoxyphenyl)-5,7-dimethoxy-4-oxo-4H-chromen-3-yloxy)-N-(5–(4-(trifluoromethyl)phenyl)-1,3,4-oxadiazol-2-yl)acetamide]	1.29 ± 0.2	210 to 212
COc1cc(OC)c2c(=O)c(OCC(=O)Nc3nnc(-c4ccccc4Cl)o3)c(-c3ccc(OC)c(OC)c3)oc2c1 [B7, N-(5–(2-chlorophenyl)-1,3,4-oxadiazol-2-yl)-2–(2-(3,4-dimethoxyphenyl)-5,7-dimethoxy-4-oxo-4H-chromen-3-yloxy)acetamide]	24.3 ± 2.7	221 to 223
COc1cc(OC)c2c(=O)c(OCC(=O)Nc3nnc(-c4ccccc4[N+](=O)[O-])o3)c(-c3ccc(OC)c(OC)c3)oc2c1 [B15, 2–(2-(3,4-dimethoxyphenyl)-5,7-dimethoxy-4-oxo-4H-chromen-3-yloxy)-N-(5–(2-nitrophenyl)-1,3,4-oxadiazol-2-yl)acetamide]	17.2 ± 2.98	254 to 256
COc1cc(OC)c2c(=O)c(OCC(=O)Nc3nnc(-c4cccc(C(F)(F)F)c4)o3)c(-c3cc(OC)c(OC)c(OC)c3)oc2c1 [A17, 2–(5,7-dimethoxy-4-oxo-2–(3,4,5-trimethoxyphenyl)-4H-chromen-3-yloxy)-N-(5–(3-(trifluoromethyl)phenyl)-1,3,4-oxadiazol-2-yl)acetamide]	4.11 ± 0.62	220 to 222
COc1cc(OC)c2c(=O)c(OCC(=O)Nc3nnc(-c4cccc(F)c4)o3)c(-c3ccc(OC)c(OC)c3)oc2c1 [B3, 2–(2-(3,4-dimethoxyphenyl)-5,7-dimethoxy-4-oxo-4H-chromen-3-yloxy)-N-(5–(3-fluorophenyl)-1,3,4-oxadiazol-2-yl)acetamide]	4.3 ± 0.77	229 to 231
COc1cc(OC)c2c(=O)c(OCC(=O)Nc3nnc(-c4ccccc4)o3)c(-c3ccc(OC)c(OC)c3)oc2c1 [B1, 2–(2-(3,4-dimethoxyphenyl)-5,7-dimethoxy-4-oxo-4H-chromen-3-yloxy)-N-(5-phenyl-1,3,4-oxadiazol-2-yl)acetamide]	> 60	237 to 239
COc1cc(OC)c2c(=O)c(OCC(=O)Nc3nnc(-c4cccc(C)c4)o3)c(-c3cc(OC)c(OC)c(OC)c3)oc2c1 [A12, 2–(5,7-dimethoxy-4-oxo-2–(3,4,5-trimethoxyphenyl)-4H-chromen-3-yloxy)-N-(5-m-tolyl-1,3,4-oxadiazol-2-yl)acetamide]	15.3 ± 2.85	197 to 199
COc1cc(OC)c2c(=O)c(OCC(=O)Nc3nnc(-c4cccc(Br)c4)o3)c(-c3ccc(OC)c(OC)c3)oc2c1 [B9, N-(5–(3-bromophenyl)-1,3,4-oxadiazol-2-yl)-2–(2-(3,4-dimethoxyphenyl)-5,7-dimethoxy-4-oxo-4H-chromen-3-yloxy)acetamide]	2.9 ± 0.45	204 to 206
COc1cc(OC)c2c(=O)c(OCC(=O)Nc3nnc(-c4ccccc4Cl)o3)c(-c3cc(OC)c(OC)c(OC)c3)oc2c1 [A7, N-(5–(2-chlorophenyl)-1,3,4-oxadiazol-2-yl)-2–(5,7-dimethoxy-4-oxo-2–(3,4,5-trimethoxyphenyl)-4H-chromen-3-yloxy)acetamide]	12.5 ± 1.88	201 to 203
COc1ccc(-c2nnc(NC(=O)COc3c(-c4cc(OC)c(OC)c(OC)c4)oc4cc(OC)cc(OC)c4c3=O)o2)cc1 [A22, 2–(5,7-dimethoxy-4-oxo-2–(3,4,5-trimethoxyphenyl)-4H-chromen-3-yloxy)-N-(5–(4-methoxyphenyl)-1,3,4-oxadiazol-2-yl)acetamide]	9.11 ± 1.88	239 to 241
COc1cc(OC)c2c(=O)c(OCC(=O)Nc3nnc(-c4ccccc4)o3)c(-c3cc(OC)c(OC)c(OC)c3)oc2c1 [A1, 2–(5,7-dimethoxy-4-oxo-2–(3,4,5-trimethoxyphenyl)-4H-chromen-3-yloxy)-N-(5-phenyl-1,3,4-oxadiazol-2-yl)acetamide]	21.1 ± 2.28	222 to 224
COc1cc(OC)c2c(=O)c(OCC(=O)Nc3nnc(-c4ccc5c(c4)OCCO5)o3)c(-c3ccc(OC)c(OC)c3)oc2c1 [B29, N-(5–(2,3-dihydrobenzo[b][1, 4]dioxin-6-yl)-1,3,4-oxadiazol-2-yl)-2–(2-(3,4-dimethoxyphenyl)-5,7-dimethoxy-4-oxo-4H-chromen-3-yloxy)acetamide]	2.98 ± 0.27	228 to 230
COc1cc(OC)cc(-c2nnc(NC(=O)COc3c(-c4cc(OC)c(OC)c(OC)c4)oc4cc(OC)cc(OC)c4c3=O)o2)c1 [A26, 2–(5,7-dimethoxy-4-oxo-2–(3,4,5-trimethoxyphenyl)-4H-chromen-3-yloxy)-N-(5–(3,5-dimethoxyphenyl)-1,3,4-oxadiazol-2-yl)acetamide]	1.06 ± 0.11	198 to 200
COc1cc(OC)c2c(=O)c(OCC(=O)Nc3nnc(-c4ccccc4C(F)(F)F)o3)c(-c3ccc(OC)c(OC)c3)oc2c1 [B18, 2–(2-(3,4-dimethoxyphenyl)-5,7-dimethoxy-4-oxo-4H-chromen-3-yloxy)-N-(5–(2-(trifluoromethyl)phenyl)-1,3,4-oxadiazol-2-yl)acetamide]	2.79 ± 0.55	225 to 227
COc1ccc(-c2nnc(NC(=O)COc3c(-c4ccc(OC)c(OC)c4)oc4cc(OC)cc(OC)c4c3=O)o2)cc1 [B22, 2–(2-(3,4-dimethoxyphenyl)-5,7-dimethoxy-4-oxo-4H-chromen-3-yloxy)-N-(5–(4-methoxyphenyl)-1,3,4-oxadiazol-2-yl)acetamide]	14.3 ± 1.33	206 to 208
COc1cc(OC)c2c(=O)c(OCC(=O)Nc3nnc(-c4ccc(F)cc4)o3)c(-c3ccc(OC)c(OC)c3)oc2c1 [B2, 2–(2-(3,4-dimethoxyphenyl)-5,7-dimethoxy-4-oxo-4H-chromen-3-yloxy)-N-(5–(4-fluorophenyl)-1,3,4-oxadiazol-2-yl)acetamide]	1.38 ± 0.25	236 to 238
COc1cc(OC)cc(-c2nnc(NC(=O)COc3c(-c4ccc(OC)c(OC)c4)oc4cc(OC)cc(OC)c4c3=O)o2)c1 [B26, N-(5–(3,5-dimethoxyphenyl)-1,3,4-oxadiazol-2-yl)-2–(2-(3,4-dimethoxyphenyl)-5,7-dimethoxy-4-oxo-4H-chromen-3-yloxy)acetamide]	3.99 ± 0.85	200 to 202
COc1cc(OC)c2c(=O)c(OCC(=O)Nc3nnc(-c4cccc(C)c4)o3)c(-c3ccc(OC)c(OC)c3)oc2c1 [B12, 2–(2-(3,4-dimethoxyphenyl)-5,7-dimethoxy-4-oxo-4H-chromen-3-yloxy)-N-(5-m-tolyl-1,3,4-oxadiazol-2-yl)acetamide]	> 60	221 to 223
COc1cc(OC)c2c(=O)c(OCC(=O)Nc3nnc(-c4ccccc4C)o3)c(-c3cc(OC)c(OC)c(OC)c3)oc2c1 [A13, 2–(5,7-dimethoxy-4-oxo-2–(3,4,5-trimethoxyphenyl)-4H-chromen-3-yloxy)-N-(5-o-tolyl-1,3,4-oxadiazol-2-yl)acetamide]	25.1 ± 2.01	205 to 207
COc1cc(OC)c2c(=O)c(OCC(=O)Nc3nnc(-c4cccc(C(F)(F)F)c4)o3)c(-c3ccc(OC)c(OC)c3)oc2c1 [B17, 2–(2-(3,4-dimethoxyphenyl)-5,7-dimethoxy-4-oxo-4H-chromen-3-yloxy)-N-(5–(3-(trifluoromethyl)phenyl)-1,3,4-oxadiazol-2-yl)acetamide]	27.6 ± 3.11	195 to 197
COc1cc(OC)c2c(=O)c(OCC(=O)Nc3nnc(-c4cccc(Cl)c4)o3)c(-c3ccc(OC)c(OC)c3)oc2c1 [B6, N-(5–(3-chlorophenyl)-1,3,4-oxadiazol-2-yl)-2–(2-(3,4-dimethoxyphenyl)-5,7-dimethoxy-4-oxo-4H-chromen-3-yloxy)acetamide]	15.4 ± 4.2	220 to 222
